Measured values from PubChem BioAssay AID1926 (The Scripps Research Institute Molecular Screening Center, 2009).
Calls of active or inactive are those of the source.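 Rule for the calls: active = IC50 half-maximal inhibitory concentration at or below 10 µM; inactive = IC50 above 10 µM.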

The compounds below were run against VIM-2 metallo-beta-lactamase (Pseudomonas aeruginosa) (UniProt Q932Y6) (assay: VIM-2 inhibitor FRET-based artefact check, dose response, artefact control for selective VIM-2 inhibitor project, biochemical, FRET readout, CCF2 substrate (AID 1926)). Settings: purified VIM-2, CCF2 FRET substrate hydrolysis.
`O=c1[nH]c2c(s1)C(c1cccnc1)C1C3CCC(C3)C1S2` (centres undefined) gave an IC50 of 0.0339 µM.
With `O=C1Nc2cc(C(=O)NCCCN3CCOCC3)ccc2S/C1=C/c1ccccc1F` the IC50 was “inactive”.
`CCCCc1cc(=O)oc2c3c(cc(OCC(=O)N4CCC[C@H]4C(=O)O)c12)OC(C)(C)CC3` gave an IC50 of 8.93 µM.
For `COc1ccc(-c2n[nH]c(=S)n2-c2ccc3c(c2)OCCO3)cc1OC`, the IC50 was 2.62 µM.
For `CC1CCCC(C)N1C(=O)CSc1nnc(NC(=O)c2cccs2)s1` (centres undefined), the IC50 was 3.92 µM.
`O=C(CSc1nnc(NC(=O)c2cc(Br)ccc2Cl)s1)NCC1CCCO1` (centres undefined) showed an IC50 of 5.87 µM.
`Cc1ccc(-n2c(-c3nn(C)c(C)c3Cl)n[nH]c2=S)cc1` showed an IC50 of 3.72 µM.
Work on `O=C(CSc1nnc(NC(=O)c2ccccc2F)s1)NCc1ccc(F)cc1` yielded an IC50 of 3.65 µM.
With `Cc1cc(OCC(=O)N2CCC[C@@H]2C(=O)O)c2c(C)c(C)c(=O)oc2c1` the IC50 was 5.31 µM.
Work on `COCC(=O)Nc1nnc(SCC(=O)NCc2cccs2)s1` yielded an IC50 of 3.62 µM.
`CCc1cc(=O)oc2c(C)c(OCC(=O)N3CCC[C@@H]3C(=O)O)ccc12` gave an IC50 of 8.96 µM.
With `O=C(O)C1Sc2[nH]c(=O)sc2C2c3cc(Cl)ccc3OC(=O)C12` (centres undefined) the IC50 was > 59.6 µM (inactive).
With `S=c1[nH]nc(C2CC2)n1Cc1ccco1` the IC50 was 3.76 µM.
Work on `CC(C)(C)C(=O)Nc1nnc(CSCc2ccccc2F)s1` yielded an IC50 of 1.96 µM.
`S=c1[nH]nc(-c2ccccc2)n1C1C=CCCC1` (centres undefined) was tested, and the IC50 was 4.99 µM.
`CC(C)(C)c1ccc(COc2ccsc2C(=O)O)cc1` gave an IC50 of 5.71 µM.
`CCCCn1c(-c2nn(C)c(C)c2Cl)n[nH]c1=S` gave an IC50 of 1.99 µM.
With `O=C(CSc1nnc(NC(=O)c2ccccc2)s1)NCc1ccco1` the IC50 was 4.63 µM.
For `S=c1[nH]nc(-c2cccs2)n1Cc1ccccc1`, the IC50 was 0.889 µM.
For `CCCn1c(C(C)C)n[nH]c1=S`, the IC50 was 3.48 µM.
With `COc1ccccc1C(=O)Nc1nnc(SCC(=O)NCc2ccco2)s1` the IC50 was 2.61 µM.
Compound `COCC(C)NC(=O)c1cc2cccc([N+](=O)[O-])c2[nH]1` (centres undefined) has an IC50 of 6.15 µM.
`Cc1cccc(C2c3[nH]c4ccccc4c3CCN2C(=O)c2cc(CC(C)C)[nH]c(=O)n2)n1` (centres undefined) gave an IC50 of 2.74 µM.
`Cc1ccccc1C(=O)Nc1nnc(SCC(=O)NCc2ccco2)s1` showed an IC50 of 1.12 µM.
With `CSC[C@H](NC(=O)COc1cc2c(c3oc(=O)c(C)c(C)c13)CCC(C)(C)O2)C(=O)O` the IC50 was 4.21 µM.
With `S=c1[nH]nc(-c2ccccc2)n1CC1CCCO1` (centres undefined) the IC50 was 4.15 µM.
`Cn1ccnc1SCC(=O)Nc1ccc2nc(SCC(=O)NC3CC3)sc2c1` showed an IC50 of 9 µM.
With `S=c1[nH]nc(Cn2c(-c3ccccn3)nc3ccccc32)n1-c1ccc2c(c1)OCCO2` the IC50 was 4.03 µM.
Compound `CC(C)Cn1c(-c2ccco2)n[nH]c1=S` has an IC50 of 4.37 µM.
`CCCCn1c(-c2nn(C)cc2Cl)n[nH]c1=S` was tested, and the IC50 was 1.62 µM.
Compound `S=c1[nH]nc(-c2ccc3ccccc3n2)n1-c1ccc2c(c1)OCCO2` has an IC50 of 7.92 µM.
`Fc1ccccc1-c1n[nH]c(=S)n1Cc1ccccc1` showed an IC50 of 4.14 µM.
`CCOC(=O)N=S(N)(=O)c1ccccc1` (centres undefined) was tested, and the IC50 was 4.85 µM.
`Cc1cc(=O)oc2c3c(cc(OCC(=O)N[C@@H](Cc4ccccc4)C(=O)O)c12)OC(C)(C)CC3` showed an IC50 of 7.51 µM.
Compound `O=C(O)Cn1cccc1C(=O)c1ccccc1` has an IC50 of 4.04 µM.
Work on `O=C(CCN1C(=O)/C(=C/c2ccccc2F)SC1=S)NCCCn1ccnc1` yielded an IC50 of 4.49 µM.
Compound `C=C(c1cccc2ccccc12)P(=O)(O)O` has an IC50 of 2.17 µM.
Compound `Cn1c(-c2sccc2OCc2ccc(Cl)cc2Cl)n[nH]c1=S` has an IC50 of 0.774 µM.
With `COc1ccc2[nH]c(C(=O)O)c(CCN3C(=O)c4ccc(C(=O)O)cc4C3=O)c2c1` the IC50 was 0.433 µM.
`O=C(O)c1[nH]c2ccc(Cl)cc2c1CCN1C(=O)c2ccccc2C1=O` was tested, and the IC50 was 0.374 µM.
With `O=C(O)c1[nH]c2ccc(Br)cc2c1CCN1C(=O)c2cccc([N+](=O)[O-])c2C1=O` the IC50 was 0.716 µM.
Work on `CCOC(=O)c1[nH]c(C(=O)O)c(CCC(=O)OC)c1C` yielded an IC50 of 5 µM.
`O=[N+]([O-])c1ccc(-c2ccccc2)c([As](=O)(O)O)c1` gave an IC50 of 0.245 µM.
With `CC(C)(C)CC(=O)Nc1nnc(SCC(=O)NCc2cccs2)s1` the IC50 was 6.64 µM.
Compound `Cc1c(C)c2ccc(OCC(=O)N3CCC[C@@H]3C(=O)O)c(C)c2oc1=O` has an IC50 of 2.09 µM.
In the case of `O=C1Nc2cc(C(=O)N3CCC(N4CCCCC4)CC3)ccc2S/C1=C\c1ccccc1`, the IC50 is reported as 4.51 µM.
Work on `O=C(O)c1c(C(=O)O)c(-c2ccc(Br)cc2)n2c1CSC2` yielded an IC50 of 1.51 µM.
Work on `O=C(CSc1nnc(NC(=O)c2cccc(F)c2)s1)NCc1ccco1` yielded an IC50 of 4.55 µM.
Compound `Cc1c(OCC(=O)N2CCC[C@@H]2C(=O)O)ccc2c3c(c(=O)oc12)CCC3` has an IC50 of 5.43 µM.
`S=c1[nH]nc(-c2ccco2)n1-c1cccc2ccccc12` gave an IC50 of 3.97 µM.
`S=c1[nH]nc(-c2cccs2)n1C1CCCCC1` showed an IC50 of 1.31 µM.
For `Cc1n[nH]c(C)c1CCCCOc1ccc([N+](=O)[O-])cc1`, the IC50 was 5.26 µM.
`CCCCn1c(-c2sccc2C)n[nH]c1=S` was tested, and the IC50 was 0.961 µM.
For `COc1ccccc1-n1c(-c2ccco2)n[nH]c1=S`, the IC50 was 5.21 µM.
`CSc1nc(SCC(=O)O)c2c3c(sc2n1)COC(C)(C)C3` gave an IC50 of 5.35 µM.
`CC1CCCCC1n1c(-c2cccnc2)n[nH]c1=S` (centres undefined) showed an IC50 of 4.05 µM.
With `Cc1c(C)c2c(OCC(=O)N3CCC[C@H]3C(=O)O)cc3c(c2oc1=O)CCC(C)(C)O3` the IC50 was 0.525 µM.
`O=C(O)c1ccccc1C(=O)c1cccc2ccccc12` showed an IC50 of 3.82 µM.
Work on `Cc1cccc(-n2c(C)n[nH]c2=S)c1C` yielded an IC50 of 8.27 µM.
For `O=C(CSc1nnc(NC(=O)C2CCCCC2)s1)NCc1ccco1`, the IC50 was 2.23 µM.
With `Cc1cc(C(=O)OCC(=O)NC(=O)c2cccn2C)c2ccccc2n1` the IC50 was 2.3 µM.
For `CCn1c(-c2nn(-c3ccccc3)ccc2=O)n[nH]c1=S`, the IC50 was 8.57 µM.
`S=c1[nH]nc(-c2ccco2)n1Cc1ccccc1` gave an IC50 of 3.51 µM.
For `CC1=C(C(=O)O)N2C(=O)C(NC(=O)c3nn(C)cc3[N+](=O)[O-])C2SC1` (centres undefined), the IC50 was 8.54 µM.
Work on `CCCc1cc(=O)oc2c3c(cc(OCC(=O)N[C@@H](C)C(=O)O)c12)OC(C)(C)CC3` yielded an IC50 of 6.97 µM.
`Cc1cc(=O)oc2c3c(cc(OCC(=O)N4CCC[C@H]4C(=O)O)c12)OC(C)(C)CC3` was tested, and the IC50 was 4.93 µM.
Compound `O=C(O)C(NC(=O)c1ccccc1)=C(Cl)Cl` has an IC50 of 7.85 µM.
`COc1cccc(-n2c(CNC(=O)OC(C)(C)C)n[nH]c2=S)c1` showed an IC50 of 7.83 µM.
In the case of `CCN(CC)C(=O)CSc1nc2ccc(NC(=O)CSc3nccn3C)cc2s1`, the IC50 is reported as 3.61 µM.
`O=c1c2ccccc2cnn1Cc1n[nH]c(=S)n1C1CC2CCC1C2` (centres undefined) gave an IC50 of 9.66 µM.
For `Cc1nn(CCc2n[nH]c(=S)n2-c2cccc(Cl)c2)c(C)c1[N+](=O)[O-]`, the IC50 was 4.31 µM.
Work on `CC(C)(C)C(=O)Nc1nnc(SCC(=O)NCc2cccs2)s1` yielded an IC50 of 0.874 µM.
`O=C(CSc1nnc(NC(=O)C2CC2)s1)NCc1ccccc1Cl` was tested, and the IC50 was 4.62 µM.
For `CC(C)(C)c1ccc(-c2n[nH]c(=S)n2CCCN2CCOCC2)cc1`, the IC50 was 6.73 µM.
With `O=P(O)(O)c1ccccc1OCCCCCOc1ccccc1P(=O)(O)O` the IC50 was 0.862 µM.
`Cc1cccc(C(=O)Nc2nnc(SCC(=O)NCc3ccco3)s2)c1` was tested, and the IC50 was “inactive”.
`Cc1ccc(-c2c(C(=O)O)c(C(=O)O)c3n2CSC3)cc1` gave an IC50 of 2.95 µM.
Work on `Cc1cc(OCc2cc(C(=O)O)oc2C)c2c3c(c(=O)oc2c1)CCCC3` yielded an IC50 of 0.582 µM.
For `Cn1c(-c2sccc2OCc2ccccc2)n[nH]c1=S`, the IC50 was 1.2 µM.
For `Cc1ccc(-c2n[nH]c(=S)n2-c2ccccc2)cc1`, the IC50 was “inactive”.
With `Cc1ccc(S(=O)(=O)n2[nH]c(=O)cc2NC(=O)c2cccs2)cc1` the IC50 was 0.12 µM.
In the case of `CCCc1cc(=O)oc2c3c(cc(OCC(=O)N4CCC[C@H]4C(=O)O)c12)OC(C)(C)CC3`, the IC50 is reported as 1.73 µM.
Compound `Cc1cc(C)n(-c2nc(SCC(=O)O)c3c4c(sc3n2)COC(C)(C)C4)n1` has an IC50 of 9.07 µM.
With `O=C(O)CC/C(=C\c1cc([N+](=O)[O-])ccc1Cl)c1nc2ccccc2s1` the IC50 was 4.17 µM.
`COc1ccccc1-c1n[nH]c(=S)n1Cc1ccco1` was tested, and the IC50 was 6.53 µM.
With `COc1ccc(-c2cc(C(F)(F)F)nc(N3CCN(C)CC3)n2)cc1` the IC50 was > 59.6 µM (inactive).
In the case of `O=C(CSc1nnc(NC(=O)c2c(F)cccc2F)s1)NCc1ccccc1`, the IC50 is reported as 3.62 µM.
Work on `O=Cc1c(NCc2ccc(Cl)cc2)c2ccccc2[nH]c1=O` yielded an IC50 of 9.8 µM.
Work on `CCCCn1c(-c2ccoc2C)n[nH]c1=S` yielded an IC50 of 4.25 µM.
With `O=C(O)c1ccccc1Sc1ncnc2sc3c(c12)CCC3` the IC50 was 3.91 µM.
Work on `Cc1c(C)c2c(OCC(=O)N[C@@H](C)C(=O)O)cc3c(c2oc1=O)CCC(C)(C)O3` yielded an IC50 of 1.54 µM.
With `NC(=O)SCC(=O)Nc1ccccc1C(=O)O` the IC50 was 5.27 µM.
For `O=C(CSc1nnc(NC(=O)c2ccccc2[N+](=O)[O-])s1)NCc1ccco1`, the IC50 was 2.62 µM.
`O=c1[nH]c(SCc2n[nH]c(=S)n2-c2ccccc2)nc2sc3c(c12)CCC3` was tested, and the IC50 was 4.2 µM.
`Cc1c(Cl)c(-c2n[nH]c(=S)n2-c2ccc(F)cc2)nn1C` was tested, and the IC50 was 6.25 µM.
With `O=P(O)(O)c1ccccc1OCc1ccccc1` the IC50 was 0.689 µM.
`C=CCn1c(C2CC2)n[nH]c1=S` gave an IC50 of 8.36 µM.
Work on `CCCC(=O)Nc1nnc(SCC(=O)NCc2cccs2)s1` yielded an IC50 of 4.68 µM.
`O=C(c1ccco1)N1N=C(c2ccc(Cl)cc2)CC1c1ccco1` (centres undefined) showed an IC50 of 1.61 µM.
`C=C(C)Cn1c(-c2cccs2)n[nH]c1=S` was tested, and the IC50 was 1.39 µM.
Work on `S=c1[nH]nc(C2CC2)n1Cc1ccccc1` yielded an IC50 of 0.94 µM.
With `S=c1[nH]nc(-c2ccccc2)n1Cc1ccccc1` the IC50 was 8.3 µM.
`CC(=O)c1ccc(-c2ccc(Cn3c(C)nc4cc(N)c(C)nc43)cc2)cc1` was tested, and the IC50 was 6.28 µM.
Compound `COc1cc2c(cc1OC)C(C)N(C(=O)c1nccnc1C(=O)O)CC2` (centres undefined) has an IC50 of 5.74 µM.
